Assay results reported in PubChem BioAssay AID1963835 (Molecular Pharmacology Branch, DTP, NCI, 2024).

Test system: 699152-130-R-J1-PDC complex spheroid viability
Assay: Anticancer human tumor 699152-130-R-J1-PDC patient-derived pancreatic carcinoma cell line growth inhibition [POLQ]
Conditions: for IC50: curve of first compound; for viability, T/C: stronger effect = lower value
Method in brief: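 Growth inhibition in 3D: complex spheroids (tumor PDC, HUVEC, MSC) treated with POLQ inhibitor combinations; where Cmax unknown, highest tested concentration 10 microM, except SN-38 at 1 microM.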

[1] = second compound 0.0316 µM, first compound 0.0316 µM
[2] = second compound 0.0316 µM, first compound 0.1 µM
[3] = second compound 0.1 µM, first compound 0.0316 µM
[4] = second compound 0.1 µM, first compound 0.1 µM
[5] = second compound 0.316 µM, first compound 0.0316 µM
[6] = second compound 0.316 µM, first compound 0.1 µM
[7] = second compound 1 µM, first compound 0.0316 µM
[8] = second compound 1 µM, first compound 0.1 µM
[9] = second compound 3.16 µM, first compound 0.0316 µM
[10] = second compound 3.16 µM, first compound 0.1 µM
[11] = second compound 10 µM, first compound 0.0316 µM
[12] = second compound 10 µM, first compound 0.1 µM
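Further: spheroids exposed to agents for 7 days before viability reading.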
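Wherever viability, T/C is given: percent of DMSO vehicle control viability so 100% = vehicle and 0% = no viable signal.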

SMILES: CC1COCCN1c1cc(C2(S(C)(=N)=O)CC2)nc(-c2ccnc3[nH]ccc23)n1 (centres undefined) + Nc1ccc(C#CCN(C(=O)Cc2ncc(C(F)(F)F)cc2C(F)(F)F)c2ccc(F)cc2)nn1
- IC50 (second compound 0.0316 µM): > 10 µM
- IC50 (second compound 0.1 µM): > 10 µM
- IC50 (second compound 0.316 µM): > 10 µM
- IC50 (second compound 1 µM): > 10 µM
- IC50 (second compound 3.16 µM): > 10 µM
- IC50 (second compound 10 µM): > 10 µM
- viability, T/C [1]: 109%
- viability, T/C [2]: 100%
- viability, T/C (second compound 0.0316 µM, first compound 0.316 µM): 89.4%
- viability, T/C (second compound 0.0316 µM, first compound 1 µM): 88.7%
- viability, T/C (second compound 0.0316 µM, first compound 3.16 µM): 75.8%
- viability, T/C (second compound 0.0316 µM, first compound 10 µM): 68.9%
- viability, T/C [3]: 106%
- viability, T/C [4]: 92.7%
- viability, T/C (second compound 0.1 µM, first compound 0.316 µM): 96.6%
- viability, T/C (second compound 0.1 µM, first compound 1 µM): 97.6%
- viability, T/C (second compound 0.1 µM, first compound 3.16 µM): 76.2%
- viability, T/C (second compound 0.1 µM, first compound 10 µM): 62.3%
- viability, T/C [5]: 104%
- viability, T/C [6]: 113%
- viability, T/C (second compound 0.316 µM, first compound 0.316 µM): 110%
- viability, T/C (second compound 0.316 µM, first compound 1 µM): 94.4%
- viability, T/C (second compound 0.316 µM, first compound 3.16 µM): 80.1%
- viability, T/C (second compound 0.316 µM, first compound 10 µM): 68.9%
- viability, T/C [7]: 114%
- viability, T/C [8]: 96.1%
- viability, T/C (second compound 1 µM, first compound 0.316 µM): 99.9%
- viability, T/C (second compound 1 µM, first compound 1 µM): 86%
- viability, T/C (second compound 1 µM, first compound 3.16 µM): 74.7%
- viability, T/C (second compound 1 µM, first compound 10 µM): 66.1%
- viability, T/C [9]: 108%
- viability, T/C [10]: 93.4%
- viability, T/C (second compound 3.16 µM, first compound 0.316 µM): 123%
- viability, T/C (second compound 3.16 µM, first compound 1 µM): 113%
- viability, T/C (second compound 3.16 µM, first compound 3.16 µM): 88.1%
- viability, T/C (second compound 3.16 µM, first compound 10 µM): 76.6%
- viability, T/C [11]: 110%
- viability, T/C [12]: 105%
- viability, T/C (second compound 10 µM, first compound 0.316 µM): 106%
- viability, T/C (second compound 10 µM, first compound 1 µM): 95.5%
- viability, T/C (second compound 10 µM, first compound 3.16 µM): 82.6%
- viability, T/C (second compound 10 µM, first compound 10 µM): 77.2%

SMILES: CC[C@@]1(O)C(=O)OCc2c1cc1n(c2=O)Cc2cc3c(CN(C)C)c(O)ccc3nc2-1 + Cc1cccc(N(C)C(=O)C2C(O)CCN2c2nc(C)cc(C(F)(F)F)c2C#N)c1
- IC50 (second compound 0.0316 µM): > 0.1 µM
- IC50 (second compound 0.1 µM): > 0.1 µM
- IC50 (second compound 0.316 µM): > 0.1 µM
- IC50 (second compound 1 µM): > 0.1 µM
- IC50 (second compound 3.16 µM): > 0.1 µM
- IC50 (second compound 10 µM): > 0.1 µM
- viability, T/C (second compound 0.0316 µM, first compound 0.000316 µM): 104%
- viability, T/C (second compound 0.0316 µM, first compound 0.001 µM): 118%
- viability, T/C (second compound 0.0316 µM, first compound 0.00316 µM): 95.4%
- viability, T/C (second compound 0.0316 µM, first compound 0.01 µM): 90.2%
- viability, T/C [1]: 81.3%
- viability, T/C [2]: 67.3%
- viability, T/C (second compound 0.1 µM, first compound 0.000316 µM): 103%
- viability, T/C (second compound 0.1 µM, first compound 0.001 µM): 103%
- viability, T/C (second compound 0.1 µM, first compound 0.00316 µM): 91%
- viability, T/C (second compound 0.1 µM, first compound 0.01 µM): 112%
- viability, T/C [3]: 82.5%
- viability, T/C [4]: 58.2%
- viability, T/C (second compound 0.316 µM, first compound 0.000316 µM): 101%
- viability, T/C (second compound 0.316 µM, first compound 0.001 µM): 99.2%
- viability, T/C (second compound 0.316 µM, first compound 0.00316 µM): 116%
- viability, T/C (second compound 0.316 µM, first compound 0.01 µM): 93.6%
- viability, T/C [5]: 76.4%
- viability, T/C [6]: 63.2%
- viability, T/C (second compound 1 µM, first compound 0.000316 µM): 111%
- viability, T/C (second compound 1 µM, first compound 0.001 µM): 97.5%
- viability, T/C (second compound 1 µM, first compound 0.00316 µM): 111%
- viability, T/C (second compound 1 µM, first compound 0.01 µM): 99.9%
- viability, T/C [7]: 81.2%
- viability, T/C [8]: 58.7%
- viability, T/C (second compound 3.16 µM, first compound 0.000316 µM): 99.7%
- viability, T/C (second compound 3.16 µM, first compound 0.001 µM): 106%
- viability, T/C (second compound 3.16 µM, first compound 0.00316 µM): 112%
- viability, T/C (second compound 3.16 µM, first compound 0.01 µM): 97.5%
- viability, T/C [9]: 80.5%
- viability, T/C [10]: 64.1%
- viability, T/C (second compound 10 µM, first compound 0.000316 µM): 102%
- viability, T/C (second compound 10 µM, first compound 0.001 µM): 105%
- viability, T/C (second compound 10 µM, first compound 0.00316 µM): 95.6%
- viability, T/C (second compound 10 µM, first compound 0.01 µM): 91.8%
- viability, T/C [11]: 85.5%
- viability, T/C [12]: 68.8%
